Like-named read-outs stand apart in the source and are kept apart here.
Conditions: 1 mg single oral dose, fasting
Protocol: The data used in this work were obtained from four bioequivalence clinical trials conducted at the Clinical Trials Unit of the Hospital Universitario de La Princesa (UECHUP) (EUDRA-CT IDs: 2012-004433-17, 2013-002159-14, 2014-001123-77 and 2021-000315-23). […] The reference formulation (R) in all cases was Azilect® 1 mg tablets (TEVA Pharmaceuticals Europe B.V.), which was compared against different test formulations (T), all of them 1 mg tablets, except in clinical trial 3, whose test formulation was orodispersible 1 mg. The four bioequivalence trials had two periods and two sequences (TR and RT). In the first period, the volunteers randomly were administered one of the two formulations and, in the following period, after a 7-day washout period, the opposite formulation. All of them were reviewed and approved by Independent Ethics Board (IEB) of the Hospital Universitario de La Princesa, and by the Spanish Drug Agency (AEMPS). In addition, they were performed in accordance with the guidelines of the International Conference on Harmonization for Good Clinical Practice (ICH-GCP), current Spanish legislation and the Revised Declaration of Helsinki. The pharmacogenetic study (SFC-FG-2020-1) was likewise approved by the IEB of Hospital Universitario de La Princesa (registry number 4176, 9 July 2020).
In each period, the drug was administered under fasting conditions, which were maintained until 5 h after drug administration. Each subject provided 20 or 21 blood samples (depending on the clinical trial) that were extracted by BD Vacutainer® vacuum system with EDTA K2 tubes for analysis at different times between 0 h (before receiving the drug) and up to 12 h after drug intake. […] A high-performance liquid chromatography coupled to triple quadrupole mass spectrometry (HPLC-MS/MS) analytical method was used. The latter was validated according to European regulations for bioequivalence assessment, with a lower limit of quantification (LLOQ) of 10 pg/mL and a calibration range of 10–10,000 pg/mL.
Pharmacokinetic parameters were calculated with WinNonlin Professional (Scientific Consulting, Inc., Cary, NC, USA) following a non-compartmental model. The area under the curve (AUC0-t), was obtained by the trapezoidal method. The extrapolation to infinity (AUC0-∞) was determined by the sum of two partial AUCs: AUCt-∞ calculated by the ratio Ct/k, where Ct is the last detectable concentration and k the elimination slope; plus AUC0-t. Cmax and tmax were directly obtained from the plasma time-concentration curves. t1/2 was calculated as Ln2/k. Plasma clearance adjusted for bioavailability (Cl/F) was calculated as dose/AUC. Finally, the volume of distribution adjusted for bioavailability (Vd/F) was calculated by dividing Cl/F by k.
The SPSS software (v23.0, SPSS Inc., Chicago, IL, USA) was used for statistical analyses. AUC0-∞, and Cmax were divided by the dose/weight (DW) ratio to correct sex-related variability related to a varying weight. For the same purpose, Vd/F and Cl/F were divided by weight. With the purpose of normalizing their distributions, all pharmacokinetic parameters were logarithmically transformed for statistical analysis. Initially, a univariate analysis was conducted of the demographic characteristics according to sex and ethnicity, and of the pharmacokinetic parameters or ADR incidence based on sex, biogeographical group (hereinafter, “ethnicity”), genotypes and phenotypes. T-tests were used for the comparison of means for variables with two categories and ANOVA tests for variables with three or more categories, followed by a Bonferroni post-hoc. The Shapiro–Wilk test was used to address the normality of demographic characteristics. For those not following a normal distribution, the nonparametric Kruskal–Wallis test was used.

[1] = CYP1A2 *1N/*1K, *1N/*1L, *1N/*1L and *1N/*1G merged, n=4

lower tmax value, ABCC2 rs2273697 A/A vs G allele carriers: approximately 50%
AUC0-∞/DW (ABCB1 rs1045642 A/A, n=23): 275.48 ± 59.65 ng·kg·h/mL/mg
Cmax/DW (ABCB1 rs1045642 A/A, n=23): 438.76 ± 152.32 ng·kg/mL/mg
t1/2 (ABCB1 rs1045642 A/A, n=23): 2.58 ± 0.63 h
tmax (ABCB1 rs1045642 A/A, n=23): 0.50 ± 0.21 h
AUC0-∞/DW (ABCB1 rs1045642 G/A, n=61): 273.00 ± 83.60 ng·kg·h/mL/mg
Cmax/DW (ABCB1 rs1045642 G/A, n=61): 426.48 ± 179.87 ng·kg/mL/mg
t1/2 (ABCB1 rs1045642 G/A, n=61): 2.63 ± 1.04 h
tmax (ABCB1 rs1045642 G/A, n=61): 0.51 ± 0.27 h
Cmax/DW (ABCB1 rs1045642 G/G, n=34): 359.70 ± 127.40 ng·kg/mL/mg
t1/2 (ABCB1 rs1045642 G/G, n=34): 2.83 ± 0.73 h
tmax (ABCB1 rs1045642 G/G, n=34): 0.47 ± 0.19 h
AUC0-∞/DW (ABCC2 rs2273697 A/A, n=3): 350.15 ± 86.34 ng·kg·h/mL/mg
Cmax/DW (ABCC2 rs2273697 A/A, n=3): 579.28 ± 133.19 ng·kg/mL/mg
t1/2 (ABCC2 rs2273697 A/A, n=3): 3.01 ± 0.49 h
AUC0-∞/DW (ABCC2 rs2273697 G/A, n=42): 264.50 ± 74.33 ng·kg·h/mL/mg
Cmax/DW (ABCC2 rs2273697 G/A, n=42): 411.51 ± 152.39 ng·kg/mL/mg
t1/2 (ABCC2 rs2273697 G/A, n=42): 2.59 ± 0.90 h
tmax (ABCC2 rs2273697 G/A, n=42): 0.48 ± 0.19 h
AUC0-∞/DW (ABCC2 rs2273697 G/G, n=73): 262.04 ± 73.57 ng·kg·h/mL/mg
Cmax/DW (ABCC2 rs2273697 G/G, n=73): 401.58 ± 167.92 ng·kg/mL/mg
t1/2 (ABCC2 rs2273697 G/G, n=73): 2.71 ± 0.89 h
tmax (ABCC2 rs2273697 G/G, n=73): 0.51 ± 0.26 h
t1/2 (COMT rs4680 A/A, n=26): 2.74 ± 1.00 h
tmax (COMT rs4680 A/A, n=26): 0.50 ± 0.22 h
AUC0-∞/DW (COMT rs4680 G/A, n=56): 285.72 ± 81.43 ng·kg·h/mL/mg
Cmax/DW (COMT rs4680 G/A, n=56): 450.03 ± 166.19 ng·kg/mL/mg
t1/2 (COMT rs4680 G/A, n=56): 2.71 ± 0.95 h
tmax (COMT rs4680 G/A, n=56): 0.47 ± 0.18 h
AUC0-∞/DW (COMT rs4680 G/G, n=36): 253.96 ± 59.13 ng·kg·h/mL/mg
Cmax/DW (COMT rs4680 G/G, n=36): 385.75 ± 140.56 ng·kg/mL/mg
t1/2 (COMT rs4680 G/G, n=36): 2.58 ± 0.68 h
tmax (COMT rs4680 G/G, n=36): 0.52 ± 0.32 h
AUC0-∞/DW (CYP1A2 *1B/*1B, n=6): 226.81 ± 52.00 ng·kg·h/mL/mg
Cmax/DW (CYP1A2 *1B/*1B, n=6): 411.84 ± 85.38 ng·kg/mL/mg
t1/2 (CYP1A2 *1B/*1B, n=6): 1.87 ± 0.6 h
tmax (CYP1A2 *1B/*1B, n=6): 0.42 ± 0.18 h
AUC0-∞/DW (CYP1A2 *1B/*1F, n=36): 265.27 ± 80.68 ng·kg·h/mL/mg
Cmax/DW (CYP1A2 *1B/*1F, n=36): 426.5 ± 183.44 ng·kg/mL/mg
t1/2 (CYP1A2 *1B/*1F, n=36): 2.66 ± 0.9 h
tmax (CYP1A2 *1B/*1F, n=36): 0.44 ± 0.19 h
AUC0-∞/DW (CYP1A2 *1B/*1L, n=4): 275.25 ± 108.77 ng·kg·h/mL/mg
Cmax/DW (CYP1A2 *1B/*1L, n=4): 392.87 ± 133.43 ng·kg/mL/mg
t1/2 (CYP1A2 *1B/*1L, n=4): 3.32 ± 1.62 h
tmax (CYP1A2 *1B/*1L, n=4): 0.46 ± 0.16 h
AUC0-∞/DW (CYP1A2 *1B/*1N, n=5): 256.33 ± 116.11 ng·kg·h/mL/mg
Cmax/DW (CYP1A2 *1B/*1N, n=5): 327.66 ± 320.93 ng·kg/mL/mg
t1/2 (CYP1A2 *1B/*1N, n=5): 3 ± 0.78 h
tmax (CYP1A2 *1B/*1N, n=5): 0.6 ± 0.28 h
AUC0-∞/DW (CYP1A2 *1F/*1F, n=38): 263.28 ± 60.08 ng·kg·h/mL/mg
Cmax/DW (CYP1A2 *1F/*1F, n=38): 403.23 ± 139.11 ng·kg/mL/mg
t1/2 (CYP1A2 *1F/*1F, n=38): 2.69 ± 0.82 h
tmax (CYP1A2 *1F/*1F, n=38): 0.51 ± 0.21 h
AUC0-∞/DW (CYP1A2 *1J/*1N, n=5): 275.39 ± 91.37 ng·kg·h/mL/mg
Cmax/DW (CYP1A2 *1J/*1N, n=5): 435.74 ± 117.78 ng·kg/mL/mg
t1/2 (CYP1A2 *1J/*1N, n=5): 2.15 ± 0.83 h
tmax (CYP1A2 *1J/*1N, n=5): 0.43 ± 0.09 h
AUC0-∞/DW (CYP1A2 *1L/*1F, n=11): 285.81 ± 77.84 ng·kg·h/mL/mg
Cmax/DW (CYP1A2 *1L/*1F, n=11): 389.59 ± 138.34 ng·kg/mL/mg
t1/2 (CYP1A2 *1L/*1F, n=11): 2.55 ± 1.07 h
tmax (CYP1A2 *1L/*1F, n=11): 0.64 ± 0.48 h
AUC0-∞/DW (CYP1A2 *1L/*1L, n=6): 301.28 ± 89.3 ng·kg·h/mL/mg
Cmax/DW (CYP1A2 *1L/*1L, n=6): 518.16 ± 158.15 ng·kg/mL/mg
t1/2 (CYP1A2 *1L/*1L, n=6): 3.06 ± 0.38 h
tmax (CYP1A2 *1L/*1L, n=6): 0.53 ± 0.17 h
AUC0-∞/DW [1]: 220.53 ± 87.92 ng·kg·h/mL/mg
Cmax/DW [1]: 355.79 ± 242.1 ng·kg/mL/mg
t1/2 [1]: 2.94 ± 0.69 h
tmax [1]: 0.5 ± 0.14 h
AUC0-∞/DW (CYP2C19 µM, n=3): 205.53 ± 82.32 ng·kg·h/mL/mg
Cmax/DW (CYP2C19 µM, n=3): 347.93 ± 233.78 ng·kg/mL/mg
t1/2 (CYP2C19 µM, n=3): 1.75 ± 0.67 h
Structure (SMILES): C#CCN[C@@H]1CCc2ccccc21 [rasagiline, Rasagiline]
AUC0-∞/DW (ABCB1 rs1045642 G/G, n=34): 244.10 ± 63.87 (pm = 0.012) h*ng*kg/mL*mg
tmax (ABCC2 rs2273697 A/A, n=3): 0.22 ± 0.09 (pu = 0.005, pm = 0.001) ^& h
AUC0-∞/DW (COMT rs4680 A/A, n=26): 236.37 ± 68.34 (pu = 0.018, pm = 0.008) h*ng*kg/mL*mg
Cmax/DW (COMT rs4680 A/A, n=26): 355.69 ± 168.61 (pu = 0.012, pm = 0.035) ng*kg/mL*mg

Source: paper PMC9610285 (Pharmaceutics, 2022)
